Experimental data published in paper doi:10.1101/2025.03.30.646141v1 (biorxiv, 2025).

Tests used:
[1] = molecular target: T1, APH(3’)-IIb WT (Pseudomonas aeruginosa, UniProt Q9HWR2); assay: ITC; format: binding
T1 sequence (Q9HWR2 1-268): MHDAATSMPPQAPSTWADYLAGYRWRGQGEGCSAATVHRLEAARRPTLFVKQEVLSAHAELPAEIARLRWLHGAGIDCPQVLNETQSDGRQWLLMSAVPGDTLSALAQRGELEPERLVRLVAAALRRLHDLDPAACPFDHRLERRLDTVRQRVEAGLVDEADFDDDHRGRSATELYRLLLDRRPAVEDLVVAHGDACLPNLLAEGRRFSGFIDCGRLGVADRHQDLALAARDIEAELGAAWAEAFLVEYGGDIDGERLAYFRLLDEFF

[2] = molecular target: T2, APH(3’)-IIb WT (Pseudomonas aeruginosa, UniProt Q9HWR2, M95L); assay: PK/LDH coupled assay; format: biochemical; conditions: 100 µM MgATP, Tris buffer pH 7.5, 25 °C
T2 sequence (Q9HWR2 1-268 M95L): T1 sequence (Q9HWR2 1-268)

[3] = molecular target: T1, APH(3’)-IIb WT; assay: biochemical

| Structure (SMILES) | Kd [1] [nM] | Km [2] [µM] | Kd [3] [nM] |
| --- | --- | --- | --- |
| NC[C@H]1O[C@H](O[C@H]2[C@H](O)[C@@H](O[C@H]3O[C@H](CO)[C@@H](O)[C@H](N)[C@H]3O)[C@H](N)C[C@@H]2N)[C@H](N)[C@@H](O)[C@@H]1O [kanamycin B] | 2 ± 1 | 0.05 ± 0.03 | – |
| CNC(C)[C@@H]1CC[C@@H](N)[C@@H](O[C@H]2[C@H](O)[C@@H](O[C@H]3OC[C@](C)(O)[C@H](NC)[C@H]3O)[C@H](N)C[C@@H]2N)O1 (stereo partly shown) [gentamicin] | – | – | 59 ± 5 |
| NC[C@H]1O[C@H](O[C@H]2[C@H](O[C@@H]3O[C@H](CO)[C@@H](O)[C@H]3O)[C@@H](O)[C@H](N)C[C@@H]2N)[C@H](N)[C@@H](O)[C@@H]1O [ribostamycin] | 10 ± 1 | 0.21 ± 0.17 | – |
| NCC[C@H](O)C(=O)N[C@@H]1C[C@H](N)[C@@H](O[C@H]2O[C@H](CN)[C@@H](O)[C@H](O)[C@H]2O)[C@H](O)[C@H]1O[C@H]1O[C@H](CO)[C@@H](O)[C@H](N)[C@H]1O [amikacin] | 177000 ± 22000 | 54.5 ± 21.5 | – |
| NC[C@H]1O[C@H](O[C@H]2[C@H](O)[C@@H](O[C@H]3O[C@H](CO)[C@@H](O)[C@H](N)[C@H]3O)[C@H](N)C[C@@H]2N)[C@H](O)[C@@H](O)[C@@H]1O [kanamycin A] | – | 0.17 ± 0.06 | – |
| NC[C@@H]1O[C@H](O[C@H]2[C@@H](O)[C@H](O[C@@H]3[C@@H](O)[C@H](N)C[C@H](N)[C@H]3O[C@H]3O[C@H](CN)[C@@H](O)[C@H](O)[C@H]3N)O[C@@H]2CO)[C@H](N)[C@@H](O)[C@@H]1O [neomycin] | 12 ± 2 | 0.07 ± 0.06 | – |
| CN[C@@H]1[C@@H](O)[C@@H](O[C@@H]2[C@@H](O)[C@H](O[C@H]3O[C@H]([C@@H](C)O)[C@@H](O)[C@H](O)[C@H]3N)[C@@H](N)C[C@H]2N)OC[C@]1(C)O [Geneticin] | – | – | 1590 ± 310 |
| Nc1ncnc2c1ncn2[C@@H]1O[C@H](COP(=O)(O)OP(=O)(O)OP(=O)(O)O)[C@@H](O)[C@H]1O [ATP] | 10000 ± 700 | – | – |
| NC[C@H]1O[C@H](O[C@H]2[C@H](O)[C@@H](O[C@H]3O[C@H](CO)[C@@H](O)[C@H](N)[C@H]3O)[C@H](N)C[C@@H]2N)[C@H](N)C[C@@H]1O [tobramycin] | 23 | – | – |
| NC[C@@H]1O[C@H](O[C@H]2[C@@H](O)[C@H](O[C@@H]3[C@@H](O)[C@H](N)C[C@H](N)[C@H]3O[C@H]3O[C@H](CO)[C@@H](O)[C@H](O)[C@H]3N)O[C@@H]2CO)[C@H](N)[C@@H](O)[C@@H]1O [paromomycin] | 173 ± 8 | 0.53 ± 0.21 | – |
| Nc1ncnc2c1ncn2[C@@H]1O[C@H](COP(=O)(O)OP(=O)(O)O)[C@@H](O)[C@H]1O [ADP] | 4100 ± 500 | – | – |
